Four compounds from article PMC10684765, “Inhibition of rat locus coeruleus neurons by prostaglandin E2 EP3 receptors: pharmacological characterization ex vivo” (Frontiers in Pharmacology, 2023) can be followed below.

Where two headings read alike, the source gives them in different places.

Assay [1] has as its target T1, EP3 receptor (Rattus norvegicus, UniProt P34980).
T1 construct: gene Ptger3; native receptor in locus coeruleus neurons, brain slices
T1 sequence (P34980 1-365): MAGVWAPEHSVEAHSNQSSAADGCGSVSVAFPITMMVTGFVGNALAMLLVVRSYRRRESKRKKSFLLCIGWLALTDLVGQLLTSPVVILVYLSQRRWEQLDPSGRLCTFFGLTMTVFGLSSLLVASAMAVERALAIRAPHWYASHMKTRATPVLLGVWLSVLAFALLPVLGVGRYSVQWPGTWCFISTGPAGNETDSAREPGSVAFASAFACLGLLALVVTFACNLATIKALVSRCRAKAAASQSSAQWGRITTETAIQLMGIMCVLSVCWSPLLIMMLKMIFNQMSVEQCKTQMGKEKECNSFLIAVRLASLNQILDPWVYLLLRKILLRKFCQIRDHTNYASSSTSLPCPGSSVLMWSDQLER
Description: inhibition of LC neuron firing, single-unit extracellular recording; shifted by EP3 antagonist L-798, […].

For assay [2], the target named is T1, EP3 receptor. The assay is described as follows: antagonism of sulprostone concentration-effect curves, single-unit recording in rat LC slices (Schild-derived fit).

`CCCCC(C)(O)C/C=C/[C@H]1[C@H](O)CC(=O)[C@@H]1CCCCCCC(=O)O` (relative stereo) [misoprostol free acid]: the EC50 on EP3 receptor [1] (read-out: (EC50)) worked out at 50.7 nM.
With `COc1ccc(Br)cc1S(=O)(=O)NC(=O)/C=C/c1ccccc1Cc1ccc2ccccc2c1` [L-798,106], the Kb at EP3 receptor [2] is 5.77 ± 0.10 pKB.
Regarding `CCCCC[C@H](O)/C=C/[C@H]1[C@H](O)CC(=O)[C@@H]1C/C=C\CCCC(=O)O` [prostaglandin E2], the EC50 on EP3 receptor [1] came to 110 nM.
As for `CS(=O)(=O)NC(=O)CCC/C=C\C[C@H]1C(=O)C[C@@H](O)[C@@H]1/C=C/[C@@H](O)COc1ccccc1` [sulprostone], the EC50 on EP3 receptor [1] (read-out: (EC50)) came out at 14.8 nM.

The term EC50 denotes the concentration that produces a half-maximal response.
